Where only a bound is given, the exact number is not on record here.

`CC1(C)CC(C(O)CNc2nc(NCC(O)C3CC(C)(C)NC(C)(C)C3)nc(NCC(O)C3CC(C)(C)NC(C)(C)C3)n2)CC(C)(C)N1` (centres undefined) showed a melting point of 176 to 178 °C.

The compound `Cc1cccc(NC(=O)NCC(=O)N(c2ccccc2)c2ccccc2CC(=O)NC(C)(C)C)c1` returned a melting point of 216 °C.

In the case of `O=C1O[C@@H](Cn2ccnn2)CN1c1ccc(-c2ccc(C3=NO[C@H](Cn4ccnc4)C3)nc2)c(F)c1`, the melting point lay in the range of 239 to 242 °C.

Regarding `NC(=O)c1ccc(N)nc1F`, the melting point lay within 236 to 237 °C.

For `O=c1c2c(Cl)cc(Cl)cc2n(Cc2ccccc2)c(=O)n1Cc1ccccc1`, the melting point lay in the range of 104 to 106 °C.

The compound `CCOC(=O)Cc1ccnc2c([N+](=O)[O-])cccc12` displayed a melting point of 67 to 69 °C.

In turn, `Nc1ccccc1NC(=O)Nc1ccc(-c2ccc(C(=O)N3CCN4CCC3CC4)o2)cc1` returned a melting point of 174 °C.

The compound `CC(C)(C)OC(=O)N1CCC(O)(Cc2ccc3ccccc3n2)CC1` had a melting point of 119 to 121 °C.

`CC[C@H]1[C@@H](O)[C@H](C)C(=O)N1c1ccc(C#N)c(C(F)(F)F)c1` returned a melting point of 113 to 119 °C.

For `Cc1cc(C(C)(C)CCl)c(Cl)nn1`, the melting point lay in the range of 41 to 42 °C.

Regarding `OCCC1c2ccccc2-c2ccccc21`, the melting point stood at 97 °C.

Compound `O=C(O)C=CC(=O)Nc1ccc2ncnc(Nc3cccc(Br)c3)c2c1` gave a melting point of 224 to 225 °C.

Take `Cc1cc(=O)oc2cccc(SC(=O)N(C)C)c12`: the melting point is 129 °C.

With `CCOC(=O)c1[nH]c2cc(Cl)cc(Cl)c2c1N(CC(=O)c1ccccc1)Cc1ccccc1`, the melting point was 174 to 175 °C.

`CCCC1=C(C(=O)OCC)C(c2cccc(C)c2OC)c2c[nH]nc2N1` (centres undefined) displayed a melting point of 220 to 222 °C.

Consider `CC1OC(n2cc(F)c(NC(=O)c3ccoc3)nc2=O)C(O)C1O` (centres undefined), for which the melting point is 173 to 174 °C.

The compound `O=C(OCCc1c(-c2ccccc2)n2nnnc2n2ncnc12)C12CC3CC(CC(C3)C1)C2` yielded a melting point of 129 to 130 °C.

With `CC(C)(C)c1cc(SC2CCOC2=O)cc(C(C)(C)C)c1O` (centres undefined), the melting point was found to be 98 °C.

In the case of `Cc1nc(N)sc1S(=O)(=O)N(C)CCO`, the melting point was 118 °C.

As to `O=S1(=O)NC(C2CCCCC2)Nc2ccc(-c3cccc(O)c3)cc21` (centres undefined), the melting point was in the range of 238 to 246 °C.

Regarding `CCCCCCOc1ccc2c(c1CCC)OC(CCC(=O)O)(CCC(=O)O)CC2=O`, the melting point was in the range of 164 to 165 °C.

Consider `N#Cc1c(N)oc2c1CCCC2`, for which the melting point is 179 °C.

`CSc1cc(C(F)(F)F)nn1-c1ccc(NC(=O)c2ccncc2F)cc1` had a melting point of 142 to 143 °C.

The compound `O=C(O)CCc1cccc(OCc2cn(-c3ccc(C(F)(F)F)cn3)nc2C2CCCCC2)c1` displayed a melting point of 94 to 95 °C.

For `CCCSc1nc2cc(C)c(C)cc2[nH]1`, the melting point lay in the range of 122 to 123 °C.

Compound `CSc1ccc([N+](=O)[O-])nc1` returned a melting point of 165 to 167 °C.

For the compound `CC(C)(C)OC(=O)N1CCOc2ccc(O)cc2S1(=O)=O`, the melting point was 143 °C.

For `O=C1c2ccccc2C(=O)N1Cc1ccc(Br)nc1`, the melting point lay within 130 to 131 °C.

With `CC1(C)CCc2c(-c3ccco3)nc3sc4c(NCCN5CCOCC5)ncnc4c3c2C1`, the melting point was 123 to 125 °C.

In turn, `CCC(=O)Nc1cc(-c2c(-c3cccc(C)c3)nc3cccnn23)ccn1` came in with a melting point of 138 to 139 °C.

As for `Oc1ccc2c(c1)CCCC(c1ccccc1)=C2c1ccc(OCCCCSCc2ccccn2)cc1`, the melting point was determined as 155 °C.

As for `Oc1cccc(C#CC=Cc2cccc(O)c2)c1`, the melting point lay within 146 to 147 °C.

In the case of `O=C(NCC(Cc1ccccc1)C(=O)Nc1n[nH]c(=S)s1)OCc1ccccc1` (centres undefined), the melting point is 88 to 90 °C.

In the case of `CCOC(=O)c1ncc2[nH]c3cccc(Oc4ncccn4)c3c2c1COC`, the melting point lay within 96 to 98 °C.

`CC(=O)OC/C(=C(\C(=O)O)c1ccc(F)cc1)c1ccc(S(C)(=O)=O)cc1`: the melting point was determined as 187 °C.

The compound `O=S(Cc1ccccc1)c1ccccc1` (centres undefined) came in with a melting point of 123 to 126 °C.

As to `Nc1nc2c(s1)CC(NC(=O)CNC(=O)[C@@H](Cc1ccccc1)NS(=O)(=O)Cc1ccccc1)CC2` (some centres undefined), the melting point lay within 119 to 122 °C.

On to `O=c1c(-c2cccc(Cl)c2)coc2cc(O)c(O)cc12`, for which the melting point came out at 308 °C.

`O=C1CN(S(=O)(=O)CC(Cc2ccccc2)C(=O)O)CCN1` (centres undefined) registered a melting point of 168 to 171 °C.

With `CSc1nn2c(N)cc(CN(C)C)nc2c1S(=O)(=O)c1ccccc1`, the melting point was in the range of 216 to 218 °C.

In turn, `CCCNc1cccc(-c2ccnc3c(C(=O)c4cccs4)cnn23)c1` came in with a melting point of 128 to 130 °C.

Consider `CC(Oc1ncn(-c2ccccc2)n1)C(=O)O` (centres undefined), for which the melting point was 140 to 142 °C.

Consider `COc1cccc(C2=C(CO)C(=O)N(C)CC2)c1`, for which the melting point was in the range of 81 to 83 °C.

For `Nc1ncc(CCN2CCN(c3ccccc3)CC2)s1`, the melting point lay within 185 to 189 °C.

On to `Cc1cc(=O)c(O)c(C(C)O)o1` (centres undefined), for which the melting point lay within 127 to 130 °C.

The compound `C=Cc1c(C(=O)OC)nc(Cl)c(Cl)c1N` displayed a melting point of 96 to 97 °C.

`O=C(c1ccc(-c2ccn(C(=O)C3CC3)n2)cc1)N1Cc2cccn2Cc2ccccc21`: the melting point was 197 to 199 °C.

Consider `COC(=O)C1CN1C(C)=O` (centres undefined), for which the melting point is 39 to 40 °C.

In the case of `CN(C(=O)C(F)(F)F)C1Cc2ccc(C(=O)Cn3cnc4cc(-c5ccc(Cl)cc5)sc4c3=O)cc2C1` (centres undefined), the melting point was in the range of 245 to 248 °C.

`O=C(CCO)N[C@H]1CC[C@H](CCN2CCC(c3cccc4c3CCO4)CC2)CC1` returned a melting point of 158 °C.

For `Ic1ccc(N2CCCC2)cc1`, the melting point lay within 99.7 to 99.8 °C.

For `Cc1nc(Cl)c2c3c(oc2n1)CCCC3`, the melting point fell in the range of 42.4 to 43.8 °C.

With `Cn1ncnc1COc1nn2c(-c3ccccc3)nnc2cc1N1CCOCC1`, the melting point was 210 to 211 °C.

For the compound `COC(=O)c1cc2c(Nc3ncccn3)cccc2s1`, the melting point was 206 to 208 °C.

`CC(C)(C)N=NC(C)(C)SC#N`: the melting point fell in the range of 29 to 31 °C.

`Cc1ccc(NC(=O)c2ccc(CN3CCN(CCO)CC3)c(C(F)(F)F)c2)cc1Nc1nccc(-c2cncnc2)n1` yielded a melting point of 188 to 192 °C.

As for `Cc1cccc2c1nc(-c1ccccc1Cl)n2CC(C)O` (centres undefined), the melting point fell in the range of 164 to 165 °C.

With `CCSC1=NCC(=O)N1c1cc(Cl)ccc1OC`, the melting point was in the range of 113 to 115 °C.

`CC(=O)c1ccc(CCC(=O)O)c(C(=O)O)c1` came in with a melting point of 76 °C.

In the case of `CC(C)C[C@H](NC(=O)[C@H](CC(=O)OC(C)(C)C)Cc1ccccc1)C(=O)N[C@@H](CC(C)C)[C@@H](O)c1nccs1`, the melting point fell in the range of 162 to 163 °C.

In turn, `COc1ccnc(CCc2nc3cc(-c4ccc(NS(=O)(=O)c5ccccc5)cc4)cnc3[nH]2)c1` gave a melting point of 251 to 253 °C.

Turning to `Cc1c(C(=O)NCc2ccccc2)nc2n1CCc1ccccc1C2OC1CCN(C)CC1` (centres undefined), the melting point was 161 °C.

Compound `O=C(Cc1ccc(Br)cc1)c1ccc(Cl)cc1` had a melting point of 123 °C.

As for `CCCCC(COc1cccc(COc2cccc3cccnc23)c1)OC(C)=O` (centres undefined), the melting point is 85 to 86 °C.

In turn, `CCCN1CCC(c2c(O)cc(O)c3c(=O)cc(-c4ccccc4Cl)oc23)C1CO` (centres undefined) returned a melting point of 94 to 96 °C.

The compound `O=S(=O)(Nc1ccc2c(OCc3ccc4ccccc4c3)cccc2c1)C(F)(F)F` came in with a melting point of 140 to 142 °C.

As for `CC(O)Cc1c2c(cc3c(=O)cc(C(=O)O)oc13)CCCC2` (centres undefined), the melting point worked out at 235 °C.

Turning to `O=[N+]([O-])c1cn2c(n1)O[C@@H](COc1ccc(N3CCC(COc4ccc(C(F)(F)F)cc4)CC3)cc1)C2`, the melting point was 175 to 180 °C.

On to `CCCCN1C(=O)c2cnc(-c3ccccc3)nc2N(C(=O)CCl)c2ccccc21`, for which the melting point was 139 to 140 °C.

In turn, `CCOC(=O)[C@@]1(C)CSC(c2ccc(OCCOCCOC)cc2O)=N1` showed a melting point of 68 to 70 °C.

Consider `CCN(CC)C(=O)C(C)Cc1cc(-c2ccccc2)cc2ccccc12` (centres undefined), for which the melting point stood at 70 °C.

As to `O=C(c1cccnc1)n1nc(-c2ccc(Br)cc2)cc1C(F)(F)F`, the melting point was in the range of 150 to 152 °C.

For `COc1ccc(-n2c(=O)[nH]c3c(C(N)=O)nc(-c4cccc(O)c4)nc32)c(F)c1`, the melting point is above 260 °C.

In turn, `CC(=O)NC(=O)CSC(=O)Cc1ccccc1` yielded a melting point of 123 to 124 °C.

Compound `c1cc(-n2cccc2)cc(-n2cnc3cc(-c4ccco4)ccc32)c1` displayed a melting point of 137 to 139 °C.

Take `Cc1cc(SC2=C(O)CC(C3CCCC3)(C3CCCC3)OC2=O)c(C(C)(C)C)cc1OS(=O)(=O)c1cn(C)cn1`: the melting point is 143 to 145 °C.

As for `O=[N+]([O-])c1ccc(N(CCO)CCO)cc1`, the melting point fell in the range of 102 to 104 °C.

With `FC(F)(F)CC1(CC2(CC(F)(F)F)N=c3cc(Cl)c(Cl)cc3=N2)N=c2cc(Cl)c(Cl)cc2=N1`, the melting point was in the range of 235 to 237 °C.

In the case of `COc1cccc2c(CBr)coc12`, the melting point lay within 91 to 93.5 °C.

For the compound `C=CCc1c(C)nc(C)c(C(=O)Nc2c(CC)cc(C)cc2CC)c1Cl`, the melting point lay in the range of 192 to 194 °C.

`OCc1cc(OCc2ccccc2)c(OCc2ccccc2)cn1`: the melting point was found to be 96.6 °C.

For the compound `Cc1c(-c2ccc(C(F)(F)F)cc2)n(Cc2ccc(OCCN3CCCCC3)cc2)c2ccc(O)cc12`, the melting point was found to be 174 °C.

`COC(=O)c1cc(Cl)cc2c1OC(C)C(=O)N2` (centres undefined): the melting point fell in the range of 186 to 189 °C.

`CC(=O)NC[C@H]1CN(c2ccc(N3CC(=O)C3)c(F)c2)C(=O)O1` showed a melting point of 192 to 193 °C.

In turn, `CCOC(=O)c1sc(CBr)nc1C` returned a melting point of 48 to 58 °C.

`CC(=O)NCc1ccc(CN2CCN(c3nccc(N(C)C)n3)CC2)cc1` returned a melting point of 152 to 155 °C.

For the compound `CCc1ccc(COc2cccc3c2CN(C2CCC(=O)NC2=O)C3=O)cc1` (centres undefined), the melting point fell in the range of 158 to 160 °C.

Consider `Cc1nc2c(c3c1[nH]c1ccc(F)cc13)C(=O)CC(C)(C)C2`, for which the melting point lay within 229 to 230 °C.

On to `Cc1ccc(-c2cc(C(N)=O)c(N)s2)cc1`, for which the melting point is 228 to 230 °C.
